Assay results reported in publication PMC3891892 (Nature, 2013).
In brackets after ≈: the same amount, converted by molar mass.

Legend:
[1] = test system: recombinant virus possessing Hangzhou/1 HA; format: binding, influenza A virus (H7N9)
[2] = test system: CA04; design: species or system mice; conditions: mouse, in vivo, po
[3] = test system: CA04 (A/California/04/2009; H1N1); experiment: microbe, parasite or virus in culture; format: cell-based; conditions: Influenza A virus, H1N1, MDCK, read-out: IC50, plaque reduction assay

With `CC(=O)N[C@H]1[C@H]([C@H](O)[C@H](O)CO)OC(C(=O)O)=C[C@@H]1N=C(N)N` [Zanamivir, zanamivir] the “effect of inhibition of NA enzymatic function on glycan binding” value [1] was “substantial increases in binding to α2–3 linked sialosides”.

With `NC(=O)c1nc(F)c[nH]c1=O` [favipiravir] the therapeutic effectiveness [2] was “clear therapeutic effectiveness” and the IC50 [3] was 1.2 µg/mL (≈ 7.64 µM).
